In paper PMC12645083, “Microwave‐Enhanced Synthesis of 2‐Styrylquinoline‐4‐Carboxamides With Promising Anti‐Lymphoma Activity” (Archiv Der Pharmazie, 2025):

Assays:
A549 = test: In vitro antiproliferative activity, resazurin cell viability; assay type: cell-based; details: Homo sapiens, non-small cell lung cancer, 72 h of treatment, mean ± SEM
Method: (§1) To test the newly synthesized compounds, various human cell lines were employed. HD‐MB03 cells were purchased from DSMZ (Braunschweig, Germany), while A549, MDA‐MB‐231, RPMI‐8420, SU‐DHL‐8, TOLEDO, VL51, SU‐DHL‐1, SU‐DHL‐18, and KM‐H2 were obtained from ATCC (Manassas, VA, USA). Cells were cultured in DMEM (for MDA‐MB‐231 and A549) or RPMI‐1640 (for RPMI‐8420, SU‐DHL‐8, TOLEDO, VL51, SU‐DHL‐1, SU‐DHL‐18, KM‐H2, and HD‐MB03) media (Gibco, Milan, Italy). Both media were supplemented with 115 units/mL penicillin G (Gibco, Milan, Italy), 115 µg/mL streptomycin (Invitrogen, Milan, Italy), and 10% fetal bovine serum (Invitrogen, Milan, Italy). Peripheral blood mononuclear cells (PBMCs) were isolated from healthy donors as previously described. For cytotoxicity assays, PBMCs were resuspended at 5 × 10⁵ cells/mL in complete RPMI medium with or without 2.5 µg/mL phytohemagglutinin (PHA) (Irvine Scientific) to stimulate T‐cell activation and proliferation. All cell lines were maintained at 37°C in a humidified atmosphere containing 5% CO₂. All compounds were dissolved in DMSO at a 10 mM stock concentration. For dose–response assays, cells were seeded in 96‐well plates at densities optimized for each cell line: HD‐MB03 at 10,000 cells/well, A549 at 4000 cells/well, and MDA‐MB‐231 at 7000 cells/well. All other cell lines were seeded at 20,000 cells/well in a final volume of 100 µL per well. After 24 h, cells were treated with a 6‐point serial dilution of compounds starting from 10 µM, in triplicate for statistical analysis. Seventy‐2 h posttreatment, 10 µL of resazurin solution (100 µg/mL) was added to each well, and cells were incubated for an additional 3–6 h. Fluorescence was measured using a Spark 10 M microplate reader (Tecan Group Ltd., Männedorf, Switzerland) with excitation at 535 nm and emission at 600 nm. The IC₅₀ was defined as the concentration of compound required to inhibit cell proliferation by 50% compared to cells treated with the highest DMSO concentration.
(§2) To test the newly synthesized compounds, various human cell lines were employed. HD-MB03 cells were purchased from DSMZ (Braunschweig, Germany), while A549, MDA-MB-231, RPMI-8420, SU-DHL-8, TOLEDO, VL51, SU-DHL-1, SU-DHL-18, and KM-H2 were obtained from ATCC (Manassas, VA, USA). Cells were cultured in DMEM (for MDA-MB-231 and A549) or RPMI-1640 (for RPMI-8420, SU-DHL-8, TOLEDO, VL51, SU-DHL-1, SU-DHL-18, KM-H2, and HD-MB03) media (Gibco, Milan, Italy). Both media were supplemented with 115 units/mL penicillin G (Gibco, Milan, Italy), 115 µg/mL streptomycin (Invitrogen, Milan, Italy), and 10% fetal bovine serum (Invitrogen, Milan, Italy). Peripheral blood mononuclear cells (PBMCs) were isolated from healthy donors as previously described. ^[1] For cytotoxicity assays, PBMCs were resuspended at 5 × 10⁵ cells/mL in complete RPMI medium with or without 2.5 µg/mL phytohemagglutinin (PHA) (Irvine Scientific) to stimulate T cell activation and proliferation. All cell lines were maintained at 37 °C in a humidified atmosphere containing 5% CO₂. All compounds were dissolved in DMSO at a 10 mM stock concentration. For dose–response assays, cells were seeded in 96-well plates at densities optimized for each cell line: HD-MB03 at 10,000 cells/well, A549 at 4,000 cells/well, and MDA-MB-231 at 7,000 cells/well. All other cell lines were seeded at 20,000 cells/well in a final volume of 100 µL per well. After 24 hours, cells were treated with a 6-point serial dilution of compounds starting from 10 µM, in triplicate for statistical analysis. Seventy-two hours post-treatment, 10 µL of resazurin solution (100 µg/mL) was added to each well, and cells were incubated for an additional 3–6 hours. Fluorescence was measured using a Spark 10M microplate reader (Tecan Group Ltd., Männedorf, Switzerland) with excitation at 535 nm and emission at 600 nm. […]

HD-MB03 = test: as above; assay type: cell-based; details: Homo sapiens, medulloblastoma cells, 72 h of treatment, mean ± SEM, at least three experiments
Method: as §1, §2

RPMI-8402 = test: as above; assay type: cell-based; details: Homo sapiens, T-lymphoblastic leukemia cells, 72 h of treatment, mean ± SEM
Method: as §1, §2

MDA-MB-231 = test: as above; assay type: cell-based; details: Homo sapiens, triple-negative breast cancer, 72 h of treatment, mean ± SEM
Method: as §1, §2

SU-DHL-8 = test: as above; assay type: cell-based; details: Homo sapiens, B lymphocyte, large cell lymphoma, 72 h of treatment, mean ± SEM
Method: as §1, §2

[1] = test system: panel of five tumor cell lines (HD-MB03, RPMI-8402, SU-DHL-8, A549, MDA-MB-231); test: Antiproliferative activity, range over the panel of five tumor cell lines; assay type: cell-based; details: Homo sapiens; range over the active cell lines of the five-line panel; 72 h
Method: The synthesized quinoline derivatives 4a–z and 4aa–ah were evaluated in vitro for their antiproliferative activity against a panel of five tumor cell lines (HD‐MB03, medulloblastoma; RPMI‐8402, T‐lymphoblastic leukemia; SU‐DHL‐8, B lymphocyte, large cell lymphoma; A549, non‐small cell lung cancer; MDA‐MB‐231, triple‐negative breast cancer) (Table 2). […] Replacing the 4‐Cl group with a trifluoromethyl group (4ac) reduced antiproliferative activity.
as §1

Ly1 (DLBCL) = details: Figure 1; cited from earlier work
Ly10 (DLBCL) = details: Figure 1; cited from earlier work
[2] = test system: VL51 (splenic B-cell lymphoma); details: Figure 1; cited from earlier work
TMD8 (DLBCL) = details: Figure 1; cited from earlier work

| Compound | IC50 (A549) | IC50 (HD-MB03) | IC50 (RPMI-8402) | IC50 (MDA-MB-231) | IC50 (SU-DHL-8) | IC50 [1] | IC50 (Ly1 (DLBCL)) | IC50 (Ly10 (DLBCL)) | IC50 [2] | IC50 (TMD8 (DLBCL)) |
| --- | --- | --- | --- | --- | --- | --- | --- | --- | --- | --- |
| O=C(Nc1ccc([N+](=O)[O-])c(C(F)(F)F)c1)c1cc(/C=C/c2ccc(Cl)cc2)nc2ccccc12 [4w, (E)-2-(4-chlorostyryl)-N-(4-nitro-3-(trifluoromethyl)phenyl)quinoline-4-carboxamide] | > 10 µM | > 10 µM | 3.56 ± 0.44 µM | > 10 µM | 8.25 ± 0.67 µM | 3.2 to 8.97 µM | – | – | – | – |
| O=C(Nc1ccc(C(F)(F)F)cc1)c1cc(/C=C/c2ccccc2)nc2ccccc12 [4h, (E)-2-styryl-N-(4-(trifluoromethyl)phenyl)quinoline-4-carboxamide] | > 10 µM | > 10 µM | 8.97 ± 0.75 µM | > 10 µM | 7.09 ± 0.25 µM | 3.2 to 8.97 µM | – | – | – | – |
| O=C(Nc1ccc(C(F)(F)F)cc1)c1cc(/C=C/c2ccc(Cl)cc2)nc2ccccc12 [4z, (E)-2-(4-chlorostyryl)-N-(4-(trifluoromethyl)phenyl)quinoline-4-carboxamide] | > 10 µM | 6.73 ± 1.15 µM | > 10 µM | > 10 µM | 4.77 ± 0.32 µM | 3.2 to 8.97 µM | – | – | – | – |
| O=C(Nc1ccc([N+](=O)[O-])c(C(F)(F)F)c1)c1cc(/C=C/c2ccccc2)nc2ccccc12 [4j, (E)-N-(4-nitro-3-(trifluoromethyl)phenyl)-2-styrylquinoline-4-carboxamide] | > 10 µM | 8.23 ± 0.47 µM | > 10 µM | > 10 µM | 3.86 ± 0.44 µM | 3.2 to 8.97 µM | – | – | – | – |
| O=S(=O)(Nc1cccc2cccnc12)c1ccc(F)cc1 [CU-O47] | – | – | – | – | – | – | 0.7 µM | 0.7 µM | – | – |
| C[C@H](Nc1ncnc2[nH]cnc12)c1cc2ccc(F)cc2nc1-c1ccccn1 [ACP-319] | – | – | – | – | – | – | – | 0.8 µM | 3 µM | 0.15 µM |
| Cc1cccc(/C=C/c2cc(C(=O)Nc3ccc(C(F)(F)F)cc3)c3ccccc3n2)c1 [4y, (E)-2-(3-methylstyryl)-N-(4-(trifluoromethyl)phenyl)quinoline-4-carboxamide] | 8.73 ± 0.74 µM | 3.84 ± 0.22 µM | 3.2 ± 0.19 µM | 7.84 ± 0.65 µM | 3.25 ± 0.23 µM | 3.2 to 8.97 µM | – | – | – | – |
| O=C(Nc1ccc(C(F)(F)F)cc1)c1cc(/C=C/c2ccc(Cl)c(Cl)c2)nc2ccccc12 [4ab, (E)-2-(3,4-dichlorostyryl)-N-(4-(trifluoromethyl)phenyl)quinoline-4-carboxamide] | > 10 µM | 7.83 ± 0.98 µM | > 10 µM | > 10 µM | 6.54 ± 0.44 µM | 3.2 to 8.97 µM | – | – | – | – |
| COc1cc(/C=C/c2cc(C(=O)Nc3ccccc3)c3ccccc3n2)cc(OC)c1OC [4k, (E)-N-phenyl-2-(3,4,5-trimethoxystyryl)quinoline-4-carboxamide] | > 10 µM | > 10 µM | > 10 µM | > 10 µM | 5.33 ± 0.52 µM | – | – | – | – | – |
| COc1cc(/C=C/c2cc(C(=O)Nc3ccc([N+](=O)[O-])c(C(F)(F)F)c3)c3ccccc3n2)cc(OC)c1OC [4t, (E)-N-(4-nitro-3-(trifluoromethyl)phenyl)-2-(3,4,5-trimethoxystyryl)quinoline-4-carboxamide] | > 10 µM | > 10 µM | > 10 µM | > 10 µM | > 10 µM | – | – | – | – | – |
| Cc1cccc(/C=C/c2cc(C(=O)Nc3ccc([N+](=O)[O-])c(C(F)(F)F)c3)c3ccccc3n2)c1 [4u, (E)-2-(3-methylstyryl)-N-(4-nitro-3-(trifluoromethyl)phenyl)quinoline-4-carboxamide] | > 10 µM | > 10 µM | > 10 µM | > 10 µM | > 10 µM | – | – | – | – | – |
